Patent US20060052282A1, “Diagnostic and therapeutic means for pathologies associated with alpha 2 subunit of the na, k pump” (priority 2002, published 2006)

What was measured:
[1] = system: HeLa cells; assay: Ouabain treatment of transfected HeLa cells (survival, MTT cell viability); type: cell-based, human; settings: 1 μM ouabain
Procedure: Constructs were transfected by calcium phosphate (HeLa cells) following standard procedures or by Lipofectamine (COS-7 cells), (Gibco, Invitrogene Co., Carlsbad, Calif., USA).
Cell viability was measured with the MTT (13) reduction assay after 12, 24, 36, 48 and 60 hours. Each experiment was made in triplicate and statistical analysis was done by Student's t-test (homoscedastic).
(§1) As all vertebrate cells present Na,K ATPase activity, the endogenous Na,K pump activity of HeLa cells was quenched to test the ion transport performance of the exogenous mutant forms. A site-directed mutagenesis was carried out to abolish the natural ouabain sensitivity of the ATP1A2 construct by mutagenizing two amino acids, Q116R and N127D, in the first extracellular loop that is part of the ouabain binding site of Na,K ATPase (15).
Constructs were transfected by calcium phosphate (HeLa cells) following standard procedures.
Cell viability was measured with the MTT reduction assay after 24,48 and 72 hours of 1 μM ouabain challenge. We performed two independent experiments and in each experiment, datapoints are in triplicate.

[2] = system: HEK293; assay: Ouabain treatment of transfected HEK293 cells; type: cell-based, human; settings: 1 μM ouabain; pA2Oua^r-wt versus mock transfected cells
Procedure: as §1

## C[C@@H]1O[C@@H](O[C@H]2C[C@@H](O)[C@]3(CO)[C@H]4[C@H](O)C[C@]5(C)[C@@H](C6=CC(=O)OC6)CC[C@]5(O)[C@@H]4CC[C@]3(O)C2)[C@H](O)[C@H](O)[C@H]1O [ouabain]
[1]; HeLa cells transfected with ouabain-resistant ATP1A2 construct pA2Oua^r-wt
  cell survival in ouabain-containing media: can survive and grow
[1]; HeLa cells transfected with ouabain-resistant T378N (AHC) ATP1A2 construct
  cell survival under ouabain treatment: did not survive
[1]; HeLa cells transfected with pA2Oua^r-P764 (L764P)
  cell survival under ouabain treatment: failed to survive
[1]; HeLa cells transfected with pA2Oua^r-R887 (W887R)
  cell survival under ouabain treatment: failed to survive
[1]; mock transfected HeLa cells (wild-type ATP1A2, non-ouabain resistant)
  time to death of cells in ouabain-containing media: 36 to 48 h
[1]; simulated heterozygous state, equal amount of wild-type and T378N mutant cDNAs
  cell survival under ouabain treatment: intermediate behaviour
[1]; simulated heterozygous states, equal amounts of wild-type and mutant (P764 or R887) constructs
  cell survival under ouabain treatment: intermediate behavior
[2]
  cell survival in ouabain-containing media compared with HeLa: Identical results
